Measured values: patent publication US20260285850A1, “SUBSTITUTED OXAZOLIDINONES AND IMIDAZOLINONES AS HERBICIDES” (FMC CORPORATION, priority 2023, published 2026)

Assays:
Assay type in all cases: in vivo
[1] = tested on: barnyardgrass (Echinochloa crus-galli); test: Test A preemergence soil spray, visual injury rating 0-100; conditions: 10 days, 0 = no effect, 100 = complete control
Method in brief: (§1)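 Loam-sand pots got test material in surfactant-containing solvent, either as a directed soil spray before emergence or on plants at the one- to two-leaf stage. Visual injury (0-100) was read after ten greenhouse days.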

[2] = tested on: blackgrass (Alopecurus myosuroides); test: as above; conditions: 10 days, 0 = no effect, 100 = complete control
Method in brief: as §1

corn (Zea mays) [3] = test: as above; conditions: 10 days, 0 = no effect, 100 = complete control
Method in brief: as §1

[4] = tested on: green foxtail (Setaria viridis); test: as above; conditions: 10 days, 0 = no effect, 100 = complete control
Method in brief: as §1

kochia (Bassia scoparia) [5] = test: as above; conditions: 10 days, 0 = no effect, 100 = complete control
Method in brief: as §1

[6] = tested on: oat, wild (wild oat, Avena fatua); test: as above; conditions: 10 days, 0 = no effect, 100 = complete control
Method in brief: as §1

[7] = tested on: palmer (palmer amaranth, palmer pigweed, Amaranthus palmeri); test: as above; conditions: 10 days, 0 = no effect, 100 = complete control
Method in brief: as §1

[8] = tested on: ragweed (common ragweed, Ambrosia artemisiifolia); test: as above; conditions: 10 days, 0 = no effect, 100 = complete control
Method in brief: as §1

[9] = tested on: ryegrass, Italian (italian ryegrass, Lolium multiflorum); test: as above; conditions: 10 days, 0 = no effect, 100 = complete control
Method in brief: as §1

soybean (Glycine max) [10] = test: as above; conditions: 10 days, 0 = no effect, 100 = complete control
Method in brief: as §1

[11] = tested on: wheat (Triticum aestivum); test: as above; conditions: 10 days, 0 = no effect, 100 = complete control
Method in brief: as §1

[12] = tested on: barnyardgrass (Echinochloa crus-galli); test: Test A postemergence application, visual injury rating 0-100; conditions: 10 days
Method in brief: as §1

[13] = tested on: blackgrass (Alopecurus myosuroides); test: as above; conditions: 10 days
Method in brief: as §1

corn (Zea mays) [14] = test: as above; conditions: 10 days
Method in brief: as §1

[15] = tested on: galium (catchweed bedstraw, Galium aparine); test: as above; conditions: 10 days
Method in brief: as §1

[16] = tested on: green foxtail (Setaria viridis); test: as above; conditions: 10 days
Method in brief: as §1

[17] = tested on: horseweed (Erigeron canadensis); test: as above; conditions: 10 days
Method in brief: as §1

kochia (Bassia scoparia) [18] = test: as above; conditions: 10 days
Method in brief: as §1

[19] = tested on: oat, wild (wild oat, Avena fatua); test: as above; conditions: 10 days
Method in brief: as §1

[20] = tested on: palmer (palmer amaranth, palmer pigweed, Amaranthus palmeri); test: as above; conditions: 10 days
Method in brief: as §1

[21] = tested on: ragweed (common ragweed, Ambrosia artemisiifolia); test: as above; conditions: 10 days
Method in brief: as §1

[22] = tested on: ryegrass, Italian (italian ryegrass, Lolium multiflorum); test: as above; conditions: 10 days
Method in brief: as §1

soybean (Glycine max) [23] = test: as above; conditions: 10 days
Method in brief: as §1

[24] = tested on: wheat (Triticum aestivum); test: as above; conditions: 10 days
Method in brief: as §1

[25] = tested on: barnyardgrass (Echinochloa crusgalli); test: Test B flooded paddy test, visual plant response rating 0-100; conditions: 250 g ai/ha, Flood, applied to paddy water, evaluated after 13 days
Method in brief: (§2)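 Greenhouse, 13 d. Seedlings at 2-leaf stage, pots flooded to 3 cm, compound delivered into floodwater, water level held constant. Evaluated visually relative to controls.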

[26] = tested on: ducksalad (Heteranthera limosa); test: as above; conditions: 250 g ai/ha, Flood, applied to paddy water, evaluated after 13 days
Method in brief: as §2

rice (Oryza sativa) = test: as above; conditions: 250 g ai/ha, Flood, applied to paddy water, evaluated after 13 days
Method in brief: as §2

[27] = tested on: sedge, umbrella (small-flower umbrella sedge, Cyperus difformis); test: as above; conditions: 250 g ai/ha, Flood, applied to paddy water, evaluated after 13 days
Method in brief: as §2

[28] = 31 g ai/ha, postemergence, 0 = no effect, 100 = complete control
[29] = Postemergence, 125 g ai/ha, 0 is no effect, 100 is complete control

In the case of `CCOC(=O)C1CC(NC(=O)C2(C)CN(c3cc(F)cc(F)c3)C(=O)O2)CO1` (stereo not shown) [Compound 31], the “Barnyardgrass plant response rating (0-100)” value ([1]; 31 g ai/ha) is reported as 0, the “Barnyardgrass plant response rating (0 to 100 scale)” value ([1]; 125 g ai/ha) is reported as 0 and the “Blackgrass plant response rating (0-100)” value ([2]; 31 g ai/ha) is reported as 20. For the same compound, the “Blackgrass plant response rating (0 to 100 scale)” value ([2]; 125 g ai/ha) was 30, the “Corn plant response rating (0-100)” value (corn (Zea mays) [3]; 31 g ai/ha) was 0 and the “Corn plant response rating (0 to 100 scale)” value (corn (Zea mays) [3]; 125 g ai/ha) was 0. The “Foxtail, Green plant response rating (0-100)” value ([4]; 31 g ai/ha) was 0, the “Foxtail, Green plant response rating (0 to 100 scale)” value ([4]; 125 g ai/ha) was 0 and the “Kochia plant response rating (0-100)” value (kochia (Bassia scoparia) [5]; 31 g ai/ha) was 0. For the same compound, the “Kochia plant response rating (0 to 100 scale)” value (kochia (Bassia scoparia) [5]; 125 g ai/ha) was 0, the “Oat, Wild plant response rating (0-100)” value ([6]; 31 g ai/ha) was 0 and the “Oat, Wild plant response rating (0 to 100 scale)” value ([6]; 125 g ai/ha) was 30. The “Amaranth, Palmer plant response rating (0-100)” value ([7]; 31 g ai/ha) was 0, the “Amaranth, Palmer plant response rating (0 to 100 scale)” value ([7]; 125 g ai/ha) was 10 and the “Ragweed plant response rating (0-100)” value ([8]; 31 g ai/ha) was 0. The “Ragweed plant response rating (0 to 100 scale)” value ([8]; 125 g ai/ha) was 0, the “Ryegrass, Italian plant response rating (0-100)” value ([9]; 31 g ai/ha) was 0 and the “Ryegrass, Italian plant response rating (0 to 100 scale)” value ([9]; 125 g ai/ha) was 60. For the same compound, the “Soybean plant response rating (0-100)” value (soybean (Glycine max) [10]; 31 g ai/ha) was 0, the “Soybean plant response rating (0 to 100 scale)” value (soybean (Glycine max) [10]; 125 g ai/ha) was 0 and the “Wheat plant response rating (0-100)” value ([11]; 31 g ai/ha) was 0. The “Wheat plant response rating (0 to 100 scale)” value ([11]; 125 g ai/ha) was 90, the “Barnyardgrass plant response rating (0-100)” value [12, 28] was 10 and the “Barnyardgrass plant response rating (0 to 100 scale)” value [12, 29] was 90. The “Blackgrass plant response rating (0-100)” value [13, 28] was 90, the “Blackgrass plant response rating (0 to 100 scale)” value [13, 29] was 100 and the “Corn plant response rating (0-100)” value (corn (Zea mays) [14]; [28]) was 0. The “Corn plant response rating (0 to 100 scale)” value (corn (Zea mays) [14]; [29]) was 50, the “Galium plant response rating (0-100)” value [15, 28] was 60 and the “Galium plant response rating (0 to 100 scale)” value [15, 29] was 70. The “Foxtail, Green plant response rating (0-100)” value [16, 28] was 0, the “Foxtail, Green plant response rating (0 to 100 scale)” value [16, 29] was 80 and the “Horseweed plant response rating (0-100)” value [17, 28] was 0. For the same compound, the “Horseweed plant response rating (0 to 100 scale)” value [17, 29] was 0, the “Kochia plant response rating (0-100)” value (kochia (Bassia scoparia) [18]; [28]) was 0 and the “Kochia plant response rating (0 to 100 scale)” value (kochia (Bassia scoparia) [18]; [29]) was 70. The “Oat, Wild plant response rating (0-100)” value [19, 28] was 80, the “Oat, Wild plant response rating (0 to 100 scale)” value [19, 29] was 90 and the “Amaranth, Palmer plant response rating (0-100)” value [20, 28] was 0. The “Amaranth, Palmer / Pigweed, Palmer plant response rating (0 to 100 scale)” value [20, 29] was 20, the “Ragweed plant response rating (0-100)” value [21, 28] was 30 and the “Ragweed plant response rating (0 to 100 scale)” value [21, 29] was 50. The “Ryegrass, Italian plant response rating (0-100)” value [22, 28] was 60, the “Ryegrass, Italian plant response rating (0 to 100 scale)” value [22, 29] was 90 and the “Soybean plant response rating (0-100)” value (soybean (Glycine max) [23]; [28]) was 10. The “Soybean plant response rating (0 to 100 scale)” value (soybean (Glycine max) [23]; [29]) was 60, the “Wheat plant response rating (0-100)” value [24, 28] was 90 and the “Wheat plant response rating (0 to 100 scale)” value [24, 29] was 90. The “Plant response rating, Barnyardgrass (0 to 100 scale, 0 is no effect and 100 is complete control)” value [25] was 0, the “Plant response rating, Ducksalad (0 to 100 scale, 0 is no effect and 100 is complete control)” value [26] was 0 and the “Plant response rating, Rice (0 to 100 scale, 0 is no effect and 100 is complete control)” value (rice (Oryza sativa)) was 0. The “Plant response rating, Sedge, Umbrella (0 to 100 scale, 0 is no effect and 100 is complete control)” value [27] was 0.
